Common to all, as to test: KINOMEscan (ScanMAX) kinase profiling
Type in all cases: binding

The target of assay [1] is T1, panel of 468 kinases (Homo sapiens, UniProt Q9C098).
T1 construct: purchased KINOMEscan (ScanMAX) service
The settings on record: DCAMKL3; 1 μM; read-out: % control.

Assay [2] has as its target T2, panel of 468 kinases (Homo sapiens, UniProt Q96L34).
T2 construct: purchased KINOMEscan (ScanMAX) service
T2 sequence (Q96L34 1-752): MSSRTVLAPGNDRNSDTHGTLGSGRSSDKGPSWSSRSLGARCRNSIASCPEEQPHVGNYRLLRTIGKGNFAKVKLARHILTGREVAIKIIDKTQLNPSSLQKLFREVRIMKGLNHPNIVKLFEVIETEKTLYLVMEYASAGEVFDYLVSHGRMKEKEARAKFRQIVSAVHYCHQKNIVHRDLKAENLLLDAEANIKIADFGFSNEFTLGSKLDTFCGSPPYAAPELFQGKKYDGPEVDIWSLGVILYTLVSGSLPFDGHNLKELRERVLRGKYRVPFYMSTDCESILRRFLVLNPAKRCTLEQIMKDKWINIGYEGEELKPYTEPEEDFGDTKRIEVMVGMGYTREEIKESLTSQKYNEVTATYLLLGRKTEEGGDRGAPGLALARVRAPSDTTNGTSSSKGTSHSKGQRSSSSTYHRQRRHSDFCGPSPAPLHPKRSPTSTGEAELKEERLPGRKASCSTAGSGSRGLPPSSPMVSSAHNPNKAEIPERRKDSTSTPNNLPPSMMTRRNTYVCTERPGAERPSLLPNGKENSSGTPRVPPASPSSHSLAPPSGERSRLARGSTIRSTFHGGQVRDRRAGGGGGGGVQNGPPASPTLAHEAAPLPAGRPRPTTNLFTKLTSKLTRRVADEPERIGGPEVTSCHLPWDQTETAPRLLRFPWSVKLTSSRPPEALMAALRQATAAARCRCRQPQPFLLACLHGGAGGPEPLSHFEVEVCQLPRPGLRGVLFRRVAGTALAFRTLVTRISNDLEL
Conditions: MARK4; 1 μM; read-out: % control.

Assay [3] has as its target T3, panel of 468 kinases (Homo sapiens, UniProt P00533, L861Q).
T3 construct: purchased KINOMEscan (ScanMAX) service
The settings on record: EGFR(L861Q); 1 μM; read-out: % control.

The target of assay [4] is T4, panel of 468 kinases (Homo sapiens, UniProt Q9UQB9).
T4 construct: purchased KINOMEscan (ScanMAX) service
T4 sequence (Q9UQB9 1-309): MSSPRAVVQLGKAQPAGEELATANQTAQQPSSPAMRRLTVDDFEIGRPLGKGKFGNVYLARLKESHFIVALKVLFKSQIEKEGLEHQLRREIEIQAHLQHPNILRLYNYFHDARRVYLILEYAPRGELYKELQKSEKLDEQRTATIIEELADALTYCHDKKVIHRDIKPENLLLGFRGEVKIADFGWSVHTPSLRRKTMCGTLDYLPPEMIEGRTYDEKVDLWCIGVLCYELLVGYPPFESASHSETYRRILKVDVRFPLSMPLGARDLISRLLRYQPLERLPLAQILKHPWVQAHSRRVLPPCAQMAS
The settings on record: AURKC; 1 μM; read-out: % control.

Assay [5] deals with T5, panel of 468 kinases (Homo sapiens, UniProt Q6ZWH5).
T5 construct: purchased KINOMEscan (ScanMAX) service
T5 sequence (Q6ZWH5 1-1172): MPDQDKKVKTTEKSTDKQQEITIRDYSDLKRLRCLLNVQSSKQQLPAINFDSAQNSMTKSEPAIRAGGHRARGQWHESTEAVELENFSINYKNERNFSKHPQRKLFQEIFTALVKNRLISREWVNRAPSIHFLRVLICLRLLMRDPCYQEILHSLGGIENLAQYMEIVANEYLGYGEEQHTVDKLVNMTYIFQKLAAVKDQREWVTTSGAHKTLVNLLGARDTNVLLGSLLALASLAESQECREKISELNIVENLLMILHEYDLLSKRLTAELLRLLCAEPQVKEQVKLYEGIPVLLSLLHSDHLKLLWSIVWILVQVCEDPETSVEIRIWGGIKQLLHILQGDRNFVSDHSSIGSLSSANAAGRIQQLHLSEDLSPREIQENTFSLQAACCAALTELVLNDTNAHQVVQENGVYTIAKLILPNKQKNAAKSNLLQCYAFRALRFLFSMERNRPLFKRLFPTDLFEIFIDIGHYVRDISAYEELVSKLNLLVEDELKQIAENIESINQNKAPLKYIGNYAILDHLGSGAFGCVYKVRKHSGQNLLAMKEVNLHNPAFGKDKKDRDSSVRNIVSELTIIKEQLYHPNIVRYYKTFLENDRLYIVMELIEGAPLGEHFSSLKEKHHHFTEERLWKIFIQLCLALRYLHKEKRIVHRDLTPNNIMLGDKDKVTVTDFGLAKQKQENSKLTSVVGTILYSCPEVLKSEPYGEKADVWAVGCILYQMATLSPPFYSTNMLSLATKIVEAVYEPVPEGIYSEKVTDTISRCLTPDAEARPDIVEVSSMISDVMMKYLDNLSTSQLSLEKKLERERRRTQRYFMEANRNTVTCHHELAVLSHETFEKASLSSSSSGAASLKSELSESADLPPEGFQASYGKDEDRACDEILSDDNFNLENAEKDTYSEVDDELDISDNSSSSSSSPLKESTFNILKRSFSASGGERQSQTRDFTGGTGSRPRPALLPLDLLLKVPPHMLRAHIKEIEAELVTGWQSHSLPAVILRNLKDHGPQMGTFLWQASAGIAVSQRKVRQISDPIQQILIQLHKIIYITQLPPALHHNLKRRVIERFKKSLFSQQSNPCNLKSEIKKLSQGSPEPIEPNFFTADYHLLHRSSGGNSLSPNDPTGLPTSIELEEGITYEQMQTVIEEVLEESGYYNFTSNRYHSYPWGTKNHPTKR
The settings on record: NEK10; 1 μM; read-out: % control.

Assay [6] has as its target T6, panel of 468 kinases (Homo sapiens, UniProt Q86Y07).
T6 construct: purchased KINOMEscan (ScanMAX) service
The settings on record: VRK2; 1 μM; read-out: % control.

T1 sequence (Q9C098 whole entry): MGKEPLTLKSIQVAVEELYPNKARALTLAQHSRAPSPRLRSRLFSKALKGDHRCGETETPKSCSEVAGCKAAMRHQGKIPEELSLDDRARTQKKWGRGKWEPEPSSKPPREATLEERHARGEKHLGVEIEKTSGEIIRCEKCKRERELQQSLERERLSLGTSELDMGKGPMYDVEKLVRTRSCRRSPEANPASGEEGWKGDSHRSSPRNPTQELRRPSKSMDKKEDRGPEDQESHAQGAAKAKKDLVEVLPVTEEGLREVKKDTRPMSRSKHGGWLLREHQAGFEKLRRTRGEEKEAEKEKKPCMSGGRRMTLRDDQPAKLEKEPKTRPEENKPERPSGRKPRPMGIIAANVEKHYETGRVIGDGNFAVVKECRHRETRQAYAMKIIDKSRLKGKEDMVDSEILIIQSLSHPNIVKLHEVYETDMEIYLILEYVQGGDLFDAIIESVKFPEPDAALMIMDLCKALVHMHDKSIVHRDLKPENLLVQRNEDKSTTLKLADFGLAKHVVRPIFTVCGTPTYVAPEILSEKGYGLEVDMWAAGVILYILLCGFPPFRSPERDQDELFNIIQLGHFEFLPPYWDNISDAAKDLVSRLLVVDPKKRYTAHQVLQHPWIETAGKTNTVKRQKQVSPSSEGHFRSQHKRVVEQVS
T6 sequence (Q86Y07 whole entry): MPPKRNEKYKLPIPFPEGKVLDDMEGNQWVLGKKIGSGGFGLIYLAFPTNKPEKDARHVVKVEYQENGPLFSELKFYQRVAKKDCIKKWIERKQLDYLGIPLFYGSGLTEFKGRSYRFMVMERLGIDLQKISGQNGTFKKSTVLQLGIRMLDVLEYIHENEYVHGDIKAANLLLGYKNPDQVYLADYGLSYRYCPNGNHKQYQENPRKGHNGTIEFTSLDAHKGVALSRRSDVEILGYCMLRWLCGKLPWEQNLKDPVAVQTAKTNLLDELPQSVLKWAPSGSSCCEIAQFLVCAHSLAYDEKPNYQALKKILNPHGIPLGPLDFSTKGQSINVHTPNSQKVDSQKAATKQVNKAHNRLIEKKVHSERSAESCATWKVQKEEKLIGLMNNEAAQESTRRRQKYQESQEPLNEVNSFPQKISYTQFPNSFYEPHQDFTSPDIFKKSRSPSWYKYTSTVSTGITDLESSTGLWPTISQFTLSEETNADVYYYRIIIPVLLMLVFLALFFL
T3 sequence (P00533 25-1210 L861Q): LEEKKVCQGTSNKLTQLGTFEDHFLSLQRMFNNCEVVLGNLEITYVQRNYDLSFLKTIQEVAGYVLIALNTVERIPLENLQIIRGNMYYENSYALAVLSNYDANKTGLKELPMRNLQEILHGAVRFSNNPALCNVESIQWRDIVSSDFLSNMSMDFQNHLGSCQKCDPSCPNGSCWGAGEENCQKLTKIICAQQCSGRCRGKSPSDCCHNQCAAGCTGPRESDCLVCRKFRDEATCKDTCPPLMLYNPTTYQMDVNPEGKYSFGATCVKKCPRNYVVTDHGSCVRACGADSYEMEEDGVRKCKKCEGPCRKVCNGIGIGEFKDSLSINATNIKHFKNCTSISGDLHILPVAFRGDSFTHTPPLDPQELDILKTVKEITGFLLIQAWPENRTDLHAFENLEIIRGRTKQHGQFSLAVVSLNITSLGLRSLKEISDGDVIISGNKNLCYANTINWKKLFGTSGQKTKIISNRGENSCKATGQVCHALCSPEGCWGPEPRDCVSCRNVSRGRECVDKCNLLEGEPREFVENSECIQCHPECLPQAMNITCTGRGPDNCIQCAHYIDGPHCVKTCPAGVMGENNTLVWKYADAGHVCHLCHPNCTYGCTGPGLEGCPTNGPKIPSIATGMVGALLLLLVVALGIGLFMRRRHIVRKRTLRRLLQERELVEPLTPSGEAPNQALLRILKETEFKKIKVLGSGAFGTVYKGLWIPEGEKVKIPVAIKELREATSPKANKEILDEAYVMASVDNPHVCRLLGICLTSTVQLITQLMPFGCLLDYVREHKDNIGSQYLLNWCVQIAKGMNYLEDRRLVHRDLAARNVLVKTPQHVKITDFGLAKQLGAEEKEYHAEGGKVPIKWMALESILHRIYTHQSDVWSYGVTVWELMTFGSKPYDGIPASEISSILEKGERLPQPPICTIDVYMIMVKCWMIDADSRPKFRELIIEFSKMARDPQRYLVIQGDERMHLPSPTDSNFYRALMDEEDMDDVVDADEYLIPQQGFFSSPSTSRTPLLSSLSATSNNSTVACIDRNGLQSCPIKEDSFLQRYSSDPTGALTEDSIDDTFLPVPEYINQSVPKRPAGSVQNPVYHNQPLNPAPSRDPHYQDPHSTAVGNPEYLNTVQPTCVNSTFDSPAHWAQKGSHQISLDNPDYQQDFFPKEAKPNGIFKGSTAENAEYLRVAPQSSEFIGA

On to `CNc1nc(Nc2ccc(S(=O)(=O)N3CCC(N4CCOCC4)CC3)cc2OC)nc2[nH]cc(Cl)c12` [Compound 12, 5-chloro-N2-(2-methoxy-4-((4-morpholinopiperidin-1-yl)sulfonyl)phenyl)-N4-methyl-7H-pyrrolo[2,3-d]pyrimidine-2,4-diamine], for which the remaining binding at 1 µM at panel of 468 kinases [1] turned out to be 100%; at panel of 468 kinases [2], 98%; on panel of 468 kinases [3], 100%; at panel of 468 kinases [4], 100%; on panel of 468 kinases [5] it was 63%; on panel of 468 kinases [6], 94%.
Turning to `CNc1nc(Nc2ccc(C(=O)N3CCC(N4CCOCC4)CC3)c3c2OCO3)nc2[nH]cc(Cl)c12` [Compound 75, (7-((5-chloro-4-(methylamino)-7H-pyrrolo[2,3-d]pyrimidin-2-yl)amino)benzo[d][1,3]dioxol-4-yl)(4-morpholinopiperidin-1-yl)methanone], the remaining binding at 1 µM stood at 100% at panel of 468 kinases [1]; 96% at panel of 468 kinases [2]; 100% on panel of 468 kinases [3]; 56% on panel of 468 kinases [4]; 66% on panel of 468 kinases [5]; 88% at panel of 468 kinases [6].
Regarding `CNc1nc(Nc2ccc(P3(=O)CCN(C4CCOCC4)CC3)cc2OC)nc2[nH]cc(Cl)c12` [Compound 77, 4-(4-((5-chloro-4-(methylamino)-7H-pyrrolo[2,3-d]pyrimidin-2-yl)amino)-3-methoxyphenyl)-1-(tetrahydro-2H-pyran-4-yl)-1,4-azaphosphinane 4-oxide], the remaining binding at 1 µM on panel of 468 kinases [1] was determined as 100%; on panel of 468 kinases [2] it was 97%; on panel of 468 kinases [3], 100%; at panel of 468 kinases [4], 100%; at panel of 468 kinases [5] it was 39%; at panel of 468 kinases [6], 89%.

(Values after patent publication US12479847B2 (DANA-FARBER CANCER INSTITUTE, INC., priority 2019, dated 2025).)
